Reference: PMC12040169 (PLOS Biology, 2025)

assay: in vitro; conditions: human, hela cells, % viability

| Compound | viability at 28.5 h, 10 µM [%] |
| --- | --- |
| Cc1ccc(S(=O)(=O)Nc2ccc(N3CCCNCC3)cc2N(C)S(C)(=O)=O)cc1 [CBK000017C] | 113 |
| O=S(=O)(Nc1ccc(N2CCNCC2)nc1)c1ccc(F)cc1F [CBK000022C] | 110 |
| CN(CCOc1ccccc1)c1nccnc1N1CCNCC1 [CBK000035F] | 109 |
| CC1CN(C(=O)OC(C)(C)C)CCN1 (stereo not shown) [CBK000069C] | 100 |
| Oc1cccc2c1OCO2 [CBK000070] | 85.8 |
| CCOC(=O)Cc1csc(NS(=O)(=O)/C=C/c2ccccc2)n1 [CBK000072] | 101 |
| c1ccc(-c2nc3cc4ccccc4cc3[nH]2)nc1 [CBK000130] | 82.5 |
| Cc1oc(-c2ccccc2)nc1CCOc1ccc(NC(=O)c2ccc(Cl)cc2Cl)c(C(=O)O)c1 [CBK000168D] | 88.6 |
| O=C(Nc1ccc(Cl)cc1C(=O)O)c1ccccc1Cl [CBK000171] | 91.4 |
| Cc1cc(NC(=O)c2ccccc2O)n(C)n1 [CBK000190] | 107 |
| O=C(Nc1ccc2[nH]ncc2c1)c1ccccc1Cl [CBK000191] | 87.8 |
| CC(C)(C)OC(=O)n1cnc(CC#N)c1 [CBK000202] | 83.1 |
| CCCNc1nc(O)cc(C(F)(F)F)n1 [CBK000214] | 95.8 |
| Cc1nn(C)c(Oc2ccccc2OCc2ccccc2)c1[N+](=O)[O-] [CBK000281] | 102 |
| COc1ccc(S(=O)(=O)n2ccc3cc(N4CCN(C)CC4)ccc32)cc1OC [CBK000286C] | 79.6 |
| Cc1nn(C)c(Oc2cccc(C(F)(F)F)c2)c1C(=O)O [CBK000324] | 102 |
| COc1cccc2c3c([nH]c12)CCCC3 [CBK000331] | 95.8 |
| Cn1cc(C(=O)O)c(NC(=O)c2ccccc2Cl)n1 [CBK000353] | 95.8 |
| O[C@H](CNCc1ccccc1)COc1cccc2c1C1CCC2CC1 [CBK000370] | 92.6 |
| CC(=O)Nc1ccc(S(=O)(=O)Nc2ccnc(N3CCN4CCCC4C3)n2)cc1 (stereo not shown) [CBK000380C] | 91.1 |
| CC(C)(C)OC(=O)c1cc(C(=O)O)ccc1O [CBK000394] | 90 |
| O=C1Nc2ccc(-c3ccsc3)cc2C1(O)O [CBK000421] | 84.5 |
| CCCN(C(C)=O)c1nc(O)cc(C(F)(F)F)n1 [CBK000427] | 85.5 |

| Compound | viability at 28.5 h, 10 µM [%] |
| --- | --- |
| COc1ccc(CNC(=O)N(CCc2ccccc2)CC(C)(C)CN)cc1 [CBK000463C] | 119 |
| N[C@H]1CC[C@H](N(CCc2ccccc2)C(=O)N[C@@H]2C[C@H]2c2ccccc2)CC1 [CBK000474C] | 110 |
| NC1CCC(N(CCc2ccccc2)C(=O)Nc2ccc3c(c2)OCO3)CC1 (stereo not shown) [CBK000480C] | 83.1 |
| CC(C)(CN)CN(Cc1cccc2ccccc12)C(=O)NC1C[C@H]1c1ccccc1 (stereo partly shown) [CBK000490C] | 94.7 |
| COc1cccc(OCCO)c1 [CBK000514] | 93.1 |
| Cc1cc(Cl)cc(Cl)c1S(=O)(=O)Nc1nc(CC(=O)O)cs1 [CBK000573] | 92 |
| Cc1cc(OC(F)(F)F)ccc1S(=O)(=O)Nc1nc(CC(=O)O)cs1 [CBK000575] | 87.8 |
| COc1cc2c(cc1OC)CN(C(=O)N(CCN)CCC(C)c1ccccc1)CC2 (stereo not shown) [CBK000612C] | 80.9 |
| OCCOc1ccc(Cl)c2cccnc12 [CBK000620] | 78.1 |
| O=[N+]([O-])c1ccc(OCCOc2nccnc2N2CCNCC2)c2ncccc12 [CBK000623C] | 94.9 |
| O=[N+]([O-])c1ccc(OCCO)cc1 [CBK000628] | 84.8 |
| NC(=O)c1ccccc1OCCO [CBK000640] | 87.8 |
| CN(C)CCOc1ncccc1OCCO [CBK000655F] | 98.2 |
| Cc1ccc(S(=O)(=O)N(C)c2ccnc(N3CCN(C)CC3)n2)cc1 [CBK000671] | 99.4 |
| N=C(N)NCC(=O)N(CCCc1cc(C(F)(F)F)cc(C(F)(F)F)c1)c1ccc2c(c1)OCO2 [CBK000702T] | 80.1 |
| O=C(c1ccccc1)c1ccc(OCCO)cc1 [CBK000725] | 94 |
| COc1ccc(-c2csc(NS(=O)(=O)c3c(C)cc(Cl)cc3Cl)n2)cc1 [CBK000814] | 104 |
| CCOC(=O)Cc1csc(NS(=O)(=O)c2cc(Cl)c(Cl)s2)n1 [CBK000847] | 98 |
| CCOC(=O)Cc1csc(NS(=O)(=O)c2ccc(OC(F)(F)F)cc2)n1 [CBK000852] | 110 |
| Cc1n[nH]c(=O)c2noc(C)c12 [CBK000857] | 108 |
| Cc1cc(Cl)cc(Cl)c1S(=O)(=O)Nc1nc2c(s1)CN(C(=O)N1CCOCC1)CC2 [CBK000931] | 92.6 |
| COc1ccccc1OCCO [CBK000949] | 98.3 |
| Cc1c(Cl)cccc1S(=O)(=O)Nc1nc(-c2cccc([N+](=O)[O-])c2)cs1 [CBK000994] | 107 |

| Compound | viability at 28.5 h, 10 µM [%] |
| --- | --- |
| COc1ccccc1N(CCCc1cc(C(F)(F)F)cc(C(F)(F)F)c1)C(=O)C(N)C(C)C (stereo not shown) [CBK001004T] | 98.5 |
| CCc1csc(C(=Cc2cccs2)C(N)=O)n1 [CBK001007] | 90.2 |
| CCC(CN(C(=O)C(N)CCCCN)c1ccc2c(c1)OCO2)c1ccccc1 (stereo not shown) [CBK001083T] | 96.4 |
| N=C(N)NCC(=O)N(CCc1cc(C(F)(F)F)cc(C(F)(F)F)c1)c1cccc2ccccc12 [CBK001122T] | 105 |
| CC(C)(C)c1csc(C(=Cc2ccc(C#N)cc2)C(N)=O)n1 [CBK001154] | 88.7 |
| COc1ccc(CSc2nc(O)cc(C(F)(F)F)n2)cc1 [CBK001217] | 85 |
| COc1ccc(Cl)cc1NC(=O)CC(C)(C)CC(=O)O [CBK001236] | 90.4 |
| Cc1noc(C)c1S(=O)(=O)Nc1csc(C(F)(F)F)c1-c1ccccc1 [CBK001237] | 91 |
| COc1ccccc1NS(=O)(=O)c1ccc(N2CCN3CCCC3C2)c(N)c1 (stereo not shown) [CBK001266] | 92.6 |
| Cc1n[nH]c(=O)c2c(C)noc12 [CBK001281] | 101 |
| CCCCOc1ccc(S(=O)(=O)n2ccc3cc(N4CCNCC4)ccc32)cc1 [CBK001315C] | 37.9 |
| COc1cccc2cc([C@H]3CN(C(=O)C(C)(C)N)C[C@@H]3C(=O)N3CCC4(CC3)CN(S(C)(=O)=O)c3ccccc34)oc12 [CBK001347C] | 117 |
| Cc1ccc(OCCn2ccnc(N3CCNCC3)c2=O)c([N+](=O)[O-])n1 [CBK001381C] | 88.1 |
| O=S(=O)(c1ccc(-c2ccccc2)cc1)n1ccc2cc(N3CCN(Cc4ccccc4)CC3)ccc21 [CBK001388C] | 115 |
| CN(C)Cc1ncccc1OCCO [CBK001411C] | 111 |
| OCCOc1ncnc2ccccc12 [CBK001412] | 107 |
| O=C1CCc2cccc(OCCO)c21 [CBK001442] | 92.7 |
| Nc1cc(S(=O)(=O)Nc2ccc(C(F)(F)F)cc2)ccc1N1CCCNCC1 [CBK001518C] | 87.9 |
| CCOC(=O)[C@H]1CN(C(=O)C(C)(C)NC(=O)OC(C)(C)C)C[C@@H]1c1cc2cc(C)ccc2o1 [CBK001599] | 91.1 |
| Cc1ccc2oc([C@H]3CN(C(=O)C(C)(C)NC(=O)OC(C)(C)C)C[C@@H]3C(=O)O)cc2c1 [CBK001600] | 86.1 |
| CCOC(=O)C1CN(C(=O)N(CCN)Cc2ccc(Cl)cc2)CC1c1ccccc1 (stereo not shown) [CBK001682C] | 97.8 |
| CS(=O)(=O)N1CC2(CCN(C(=O)N(CCN)CCc3ccc(Cl)cc3)CC2)c2ccccc21 [CBK001687C] | 111 |
| CCCCCNC(=O)C(Cc1ccc(O)c(C(=O)OCc2ccccc2)c1)NC(=O)OC(C)(C)C (stereo not shown) [CBK001708] | 96.2 |

| Compound | viability at 28.5 h, 10 µM [%] |
| --- | --- |
| CCCc1cc(C(=O)NCCCN)cc(CCC)c1OCc1ccccc1 [CBK001736C] | 114 |
| c1cncc(CNCc2ccoc2)c1 [CBK001744C] | 88.1 |
| OC/C=C/c1cnc2ccccc2c1 [CBK001749] | 119 |
| CC(C)(C)OC(=O)N1CCC(Oc2cncc(Cl)n2)CC1 [CBK001762] | 98 |
| OCCOc1ccccc1N1CCOCC1 [CBK001767C] | 116 |
| Cc1ccc(OCCO)cn1 [CBK001786] | 91 |
| OCCNc1nc(O)cc(C(F)(F)F)n1 [CBK001804] | 99.5 |
| COC1C(O)=CC(=O)OC1(CCc1ccco1)CCc1ccco1 (stereo not shown) [CBK001858] | 86.7 |
| CC(C)(C)OC(=O)N1CCN(c2nccnc2OCCO)CC1 [CBK001869] | 119 |
| O=S(=O)(c1ccc2ccccc2c1)c1cnns1 [CBK001887] | 97.7 |
| CC(C)(C)CCNCCN1CCOCC1 [CBK001895] | 92.2 |
| COc1ccc(-n2cnnn2)cc1 [CBK001946] | 99 |
| CNC(=O)c1oc(-c2ccc(OC)cc2)c(-c2ccc(OC)cc2)c1C(=O)NC [CBK001956] | 90.9 |
| COC(=O)c1oc(-c2ccc(OC)cc2)c(-c2ccc(OC)cc2)c1C(N)=O [CBK001957] | 98.7 |
| CC(C)(C)OC(=O)N1CCN(c2cc(N)ncn2)CC1 [CBK001963] | 101 |
| OCCOc1ccccc1-c1cc[nH]n1 [CBK001973] | 104 |
| COc1ccc(C)cc1OCCO [CBK001975] | 104 |
| CC(=O)N1CCN(c2ccc(OCCO)cc2)CC1 [CBK001978] | 90.8 |
| Cc1ccc(S(=O)(=O)NC(=O)N2CCCC2)cc1 [CBK001984] | 87.3 |
| O=C(NC1CCCC1)c1ccccc1Cl [CBK001992] | 98.3 |
| COc1ccc(CN2C(=O)CC(c3ccccc3)C2=O)cc1 (stereo not shown) [CBK002055] | 99.4 |
| O=C(NC1CCCC1)c1ccc(Cl)cc1Cl [CBK002108] | 93.7 |
| CC(CCN(CCN)C(=O)N1CCC(Cn2cncn2)(C2CCCCC2)CC1)c1ccccc1 (stereo not shown) [CBK002130C] | 110 |

same assay, conditions: human, hela cells, % viability, bulk resorufin, single well

| Compound | viability at 28.5 h, 10 µM [%] |
| --- | --- |
| Clc1cccc(N2CCNCC2)n1 [CBK001379] | 95.3 |
| CCOC(=O)C1(c2ccccc2)CCN(C(=O)N(CCN)CCC(C)c2ccccc2)CC1 (stereo not shown) [CBK002129C] | 82.6 |
